Legend:
[1] = target: T1, Cholesteryl ester transfer protein (Homo sapiens, UniProt P11597); experiment: Inhibition of CETP in 95% human serum assessed as inhibition of transfer of [3H] cholesteryl oleate or [3H] triolein between LDL and HDL; type: cell-free
T1 sequence (P11597 whole entry): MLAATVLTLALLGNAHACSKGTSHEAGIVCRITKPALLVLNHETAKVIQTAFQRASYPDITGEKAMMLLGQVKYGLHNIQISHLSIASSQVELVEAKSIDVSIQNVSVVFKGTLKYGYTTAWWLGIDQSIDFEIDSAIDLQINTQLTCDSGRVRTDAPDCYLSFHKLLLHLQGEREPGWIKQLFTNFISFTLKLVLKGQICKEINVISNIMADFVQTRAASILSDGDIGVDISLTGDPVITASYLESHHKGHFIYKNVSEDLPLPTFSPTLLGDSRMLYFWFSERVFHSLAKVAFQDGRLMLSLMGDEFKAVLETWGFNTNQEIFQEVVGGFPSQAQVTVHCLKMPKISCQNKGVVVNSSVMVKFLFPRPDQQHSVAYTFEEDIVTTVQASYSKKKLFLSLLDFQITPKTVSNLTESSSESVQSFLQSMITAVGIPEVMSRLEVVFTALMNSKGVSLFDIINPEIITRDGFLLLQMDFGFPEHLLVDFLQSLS

[2] = target: T1, Cholesteryl ester transfer protein; experiment: Inhibition of recombinant CETP (unknown origin) assessed as inhibition of transfer of [3H] cholesteryl oleate or [3H] triolein between exogenous LDL and HDL in 2% human serum
[3] = In vivo inhibition of CETP in cynomolgus-CETP transgenic mouse assessed as increase in plasma HDL-C level at 1 mg/kg, po measured after 4 hrs; type: functional; parameters: scale not given: the % may be the effect or the level left
[4] = In vivo inhibition of CETP in cynomolgus-CETP transgenic mouse plasma at 1 mg/kg, po measured after 4 hrs; type: functional
[5] = Plasma concentration in cynomolgus-CETP transgenic mouse at 1 mg/kg, po measured after 4 hrs; type: ADME, organism-based
[6] = In vivo inhibition of CETP in cynomolgus-CETP transgenic mouse plasma at 0.3 mg/kg, po measured after 4 hrs; type: functional
[7] = Plasma concentration in cynomolgus-CETP transgenic mouse at 0.3 mg/kg, po measured after 4 hrs; type: ADME, organism-based
[8] = In vivo inhibition of CETP in cynomolgus-CETP transgenic mouse assessed as increase in plasma HDL-C level at 0.3 mg/kg, po measured after 4 hrs; type: functional; parameters: scale not given: the % may be the effect or the level left

Compound	IC50 [1]	IC50 [2]	other results
COc1ccc([C@H]2CC[C@H](C(=O)O)CC2)cc1-c1ccc(C(F)(F)F)cc1[C@@H]1CC[C@H]2[C@@H](c3cc(C(F)(F)F)cc(C(F)(F)F)c3)NS(=O)(=O)N12	2680 nM	394 nM	–
COc1ccc(CCC(=O)O)cc1-c1ccc(C(F)(F)F)cc1[C@@H]1CC[C@H]2[C@@H](c3cc(C(F)(F)F)cc(C(F)(F)F)c3)NC(=O)N12	–	550 nM	–
COc1ccc(-c2ccc(C(=O)O)cc2C)cc1-c1cnc(C(F)(F)F)cc1[C@@H]1CC[C@H]2[C@@H](c3cc(C(F)(F)F)cc(C(F)(F)F)c3)NC(=O)N12	–	544 nM	–
COc1ccc(-c2ccc(C(=O)O)cc2C)cc1-c1ccc(C(F)(F)F)cc1[C@@H]1CC[C@H]2[C@@H](c3cc(C(F)(F)F)cc(C(F)(F)F)c3)NS(=O)(=O)N12	–	135 nM	–
COc1ccc(-c2ccc(C(=O)O)cc2C)cc1-c1ccc(C(F)(F)F)cc1[C@@H]1CC[C@H]2[C@@H](c3cc(C(F)(F)F)cc(C(F)(F)F)c3)NC(=O)N12	–	379 nM	–
COc1ccc(-c2ccc(C(=O)O)cc2C)cc1-c1ccc(C(F)(F)F)cc1CN1C(=O)N[C@H](c2cc(C(F)(F)F)cc(C(F)(F)F)c2)[C@@H]1C	339 nM	37 nM	Activity [3]: 101%; inhibition in vivo at 1 mg/kg [4]: 87%; concentration at 4 h [5]: 700 nM
COc1ccc(-c2cccnc2C)cc1-c1ccc(C(F)(F)F)cc1[C@@H]1CC[C@H]2[C@@H](c3cc(C(F)(F)F)cc(C(F)(F)F)c3)NC(=O)N12	–	151 nM	–
COc1ccc(-c2ccc(C(=O)O)nc2C)cc1-c1ccc(C(F)(F)F)cc1[C@@H]1CC[C@H]2[C@@H](c3cc(C(F)(F)F)cc(C(F)(F)F)c3)NC(=O)N12	–	468 nM	–
COc1ncc(-c2ccc(C(=O)O)cc2C)cc1-c1ccc(C(F)(F)F)cc1CN1C(=O)N[C@H](c2cc(C(F)(F)F)cc(C(F)(F)F)c2)[C@@H]1C	397 nM	38 nM	–
COc1ncc(-c2c(C)cc(C(=O)NC3(C#N)CC3)cc2C)cc1-c1ccc(C(F)(F)F)cc1[C@@H]1CC[C@H]2[C@@H](c3cc(C(F)(F)F)cc(C(F)(F)F)c3)NC(=O)N12	95 nM	55 nM	Activity [3]: 30%; inhibition in vivo at 1 mg/kg [4]: 67%; concentration at 4 h [5]: 1000 nM
COc1ncc(-c2c(C)cc(C(=O)O)cc2C)cc1-c1ccc(C(F)(F)F)cc1[C@@H]1CC[C@H]2[C@@H](c3cc(C(F)(F)F)cc(C(F)(F)F)c3)NC(=O)N12	–	104 nM	–
COc1ncc(-c2ccc(C(=O)O)cc2C)cc1-c1ccc(C(F)(F)F)cc1[C@@H]1CC[C@H]2[C@@H](c3cc(C(F)(F)F)cc(C(F)(F)F)c3)NC(=O)N12	305 nM	106 nM	inhibition in vivo at 0.3 mg/kg [6]: 32%; concentration at 4 h [7]: 550 nM; Activity [8]: 58%
COc1cc(F)c(C(C)C)cc1-c1ccc(C(F)(F)F)cc1CN1C(=O)N[C@H](c2cc(C(F)(F)F)cc(C(F)(F)F)c2)[C@@H]1C	> 10000 nM	2780 nM	–
COc1ccc(-c2ccc(C(=O)O)cc2C)cc1-c1ccc(C(F)(F)F)nc1CN1C(=O)N[C@H](c2cc(C(F)(F)F)cc(C(F)(F)F)c2)[C@@H]1C	446 nM	18 nM	Activity [3]: 86%; inhibition in vivo at 1 mg/kg [4]: 89%; concentration at 4 h [5]: 830 nM
COc1ccc(-c2ccc(C(=O)O)cc2C)cc1-c1ccc(C(F)(F)F)cc1[C@@H]1CC[C@H]2[C@@H](c3cc(C(F)(F)F)cc(C(F)(F)F)c3)N(C)C(=O)N12	–	414 nM	–
COc1ccc([C@H]2CC[C@H](C(=O)O)CC2)cc1-c1ccc(C(F)(F)F)cc1[C@@H]1CC[C@H]2[C@@H](c3cc(C(F)(F)F)cc(C(F)(F)F)c3)NC(=O)N12	1730 nM	1110 nM	–
COc1ncc(-c2ccc(C(=O)O)cc2C)cc1-c1ccc(C(F)(F)F)cc1CN1C(=O)N(C)[C@H](c2cc(C(F)(F)F)cc(C(F)(F)F)c2)[C@@H]1C	129 nM	28 nM	inhibition in vivo at 0.3 mg/kg [6]: 77%; concentration at 4 h [7]: 630 nM; Activity [8]: 51%
COc1ncc(-c2ccc(C(=O)O)cc2C)cc1-c1ccc(C(F)(F)F)cc1[C@@H]1CC[C@H]2[C@@H](c3cc(C(F)(F)F)cc(C(F)(F)F)c3)N(C)C(=O)N12	–	248 nM	–
COc1ncc(-c2ccc(C(=O)O)cc2C)cc1-c1ccc(C(F)(F)F)nc1CN1C(=O)N[C@H](c2cc(C(F)(F)F)cc(C(F)(F)F)c2)[C@@H]1C	364 nM	17 nM	Activity [3]: 139%; inhibition in vivo at 1 mg/kg [4]: 87%; concentration at 4 h [5]: 1260 nM
